SMILES strings stand for the structures.

The results in this text go back to paper PMC5983617, “Hypouricemic Effect of 2,5-Dihydroxyacetophenone, a Computational Screened Bioactive Compound from Ganoderma applanatum, on Hyperuricemic Mice” (International Journal of Molecular Sciences, 2018).

The target in this assay is T1, XOD (xanthine oxidase) (Bos taurus, UniProt P80457).
T1 construct: gene XDH; oxidase form
Description: xanthine oxidation, absorbance at […] nm, microplate reader. Type of assay: biochemical.

T1 sequence (P80457 2-1332): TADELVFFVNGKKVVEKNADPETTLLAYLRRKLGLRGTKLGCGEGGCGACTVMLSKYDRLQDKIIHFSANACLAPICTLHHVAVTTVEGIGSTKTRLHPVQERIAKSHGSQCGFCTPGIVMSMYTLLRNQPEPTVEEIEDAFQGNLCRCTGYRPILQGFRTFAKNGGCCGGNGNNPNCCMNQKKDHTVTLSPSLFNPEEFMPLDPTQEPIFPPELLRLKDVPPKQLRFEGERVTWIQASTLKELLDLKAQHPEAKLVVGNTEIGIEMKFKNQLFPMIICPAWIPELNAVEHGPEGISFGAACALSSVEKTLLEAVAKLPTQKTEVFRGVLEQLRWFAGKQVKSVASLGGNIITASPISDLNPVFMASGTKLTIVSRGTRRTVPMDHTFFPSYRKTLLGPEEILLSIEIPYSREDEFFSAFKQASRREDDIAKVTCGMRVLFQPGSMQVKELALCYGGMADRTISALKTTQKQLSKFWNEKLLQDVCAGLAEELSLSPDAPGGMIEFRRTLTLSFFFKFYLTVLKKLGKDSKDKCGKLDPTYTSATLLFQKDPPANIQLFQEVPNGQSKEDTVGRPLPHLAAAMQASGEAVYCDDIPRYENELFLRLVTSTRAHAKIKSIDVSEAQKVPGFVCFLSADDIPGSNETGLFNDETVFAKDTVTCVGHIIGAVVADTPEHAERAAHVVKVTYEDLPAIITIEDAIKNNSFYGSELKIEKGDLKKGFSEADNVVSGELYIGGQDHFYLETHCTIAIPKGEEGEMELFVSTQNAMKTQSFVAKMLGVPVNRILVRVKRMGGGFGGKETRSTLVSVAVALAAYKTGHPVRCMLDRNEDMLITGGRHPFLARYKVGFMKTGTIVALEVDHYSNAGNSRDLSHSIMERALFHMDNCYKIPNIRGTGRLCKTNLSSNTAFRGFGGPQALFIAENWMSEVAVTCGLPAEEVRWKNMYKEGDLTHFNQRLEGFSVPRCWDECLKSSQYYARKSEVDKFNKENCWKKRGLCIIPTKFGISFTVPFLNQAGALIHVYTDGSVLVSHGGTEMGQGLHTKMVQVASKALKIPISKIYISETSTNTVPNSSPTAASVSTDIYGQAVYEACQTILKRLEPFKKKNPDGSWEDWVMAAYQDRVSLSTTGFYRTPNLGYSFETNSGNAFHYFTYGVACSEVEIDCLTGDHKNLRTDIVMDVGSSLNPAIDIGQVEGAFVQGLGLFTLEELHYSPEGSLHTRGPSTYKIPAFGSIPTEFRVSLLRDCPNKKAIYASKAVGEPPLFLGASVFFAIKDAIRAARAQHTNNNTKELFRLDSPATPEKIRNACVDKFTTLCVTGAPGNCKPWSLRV

As usually defined, the IC50 is the concentration at which inhibition is half-maximal. Read a low IC50 as higher potency. `CC(=O)c1cc(O)ccc1O` [DHAP] came in with a concentration for half-maximal inhibition (IC50) of 8.12 ± 0.27 µM.
